Experimental data: patent publication US5808062A, “Pyrone derivatives as protease inhibitors and antiviral agents” (Warner-Lambert Company, priority 1994, dated 1998)
≈ marks a conversion by molar mass, not a printed value.

Legend:
[1] = test system: Streptococcus pneumonia 5V-1; test: Antibacterial activity, microtitration dilution method; format: cell-based; conditions: Streptococcus pneumoniae, 5V1, read-out: Antibacterial Activity, minimum inhibitory concentration (MIC)
From the text: (§1) The compounds of the invention display antibacterial activity when tested by the microtitration dilution method as described in Heifetz, et al., Antimicr. Agents. & Chemoth. 6:124 (1974) which is incorporated herein by reference.
(§2) By use of the above referenced method, the following minimum inhibitory concentration values (MICs in μg/mL) were obtained for representative compounds of the invention vs. clinically relevant gram positive pathogens which have become highly resistant to conventional therapy in recent years.

[2] = test system: Staphylococcus aureus UC-76; test: as above; format: cell-based; conditions: UC76, read-out: Antibacterial Activity, minimum inhibitory concentration (MIC)
From the text: as §1, §2

[3] = test system: Enterococcus foecalis MGH2; test: as above; format: cell-based; conditions: read-out: Antibacterial Activity, minimum inhibitory concentration (MIC)
From the text: as §1, §2

[4] = test system: Streptococcus pyogenes C203; test: as above; format: cell-based; conditions: read-out: Antibacterial Activity, minimum inhibitory concentration (MIC)
From the text: as §1, §2

[5] = test system: Staphylococcus aureus H228; test: as above; format: cell-based; conditions: read-out: Antibacterial Activity, minimum inhibitory concentration (MIC)
From the text: as §1, §2

HIV-I Protease = biological target: T1, HIV-I Protease (Human immunodeficiency virus type 1 group M subtype B, UniProt P04585); test: HIV Protease Inhibition (undecapeptide substrate hydrolysis, HPLC); format: biochemical; conditions: averaged; substrate 40 μM, 37° C., pH 4.7 DTT buffer, 5 minutes; read-out: 50% Inhibition Concentration (Averaged)
T1 construct: HIV-I Protease: The enzyme is obtained from Bachem Bioscience Inc; purchased Bachem Bioscience Inc
Description: DTT Buffer: 1.0 mM dithiothreitol (DTT) was prepared fresh daily in 0.1% polyethylene glycol (mw 8000) 80 mM NaOAc, 160 mM NaCl, 1.0 mM EDTA, and brought to pH 4.7 with HCl.
HIV-I Protease: The enzyme is obtained from Bachem Bioscience Inc. The undiluted enzyme is thawed from -80° C. and diluted 50-fold with DTT buffer. The solution is always kept at 0° C. on ice water and used in the experiment within 20 minutes after thawing.
Enzyme Substrate: Substrate III from Bachem Bioscience Inc. is the undecapeptide H-His-Lys-Ala-Arg-Val-Leu-p-Nitrophenylalanine-Glu-Ala-Norleucine-Ser-NH2 (>97% purity). A 200 μM stock solution in DTT buffer is prepared and stored on ice. Substrate solution is prepared fresh daily.
Test Compound: 10 mM inhibitor (I) in dimethyl sulfoxide (DMSO) is diluted to 200 μM with DTT buffer. From the 200 μM stock solution is made a 10 μM stock solution with 2% DMSO in DTT buffer. The two inhibitor solutions are used to make final [I]=100, 50, 20, 10, 5, 2, 1, 0.5 and 0 μM with 2% DMSO in DTT buffer in each reaction well (total inhibitor volume of 50 μl).
To each reaction well is added 20 μl of substrate (final concentration of 40 μM), 50 μl of inhibitor (at a concentration such that final dilution will produce the test concentration) and 20 μl of DTT buffer. The reaction plate (96 wells) is incubated at 37° C. for at least 5 minutes.
10 μl of the diluted protease is added to the reaction well while the reaction plate is shaking. Once shaken for 10 seconds, the plate is returned to the heating block at 37° C. (Final reaction volume=100 μl.)
The reaction is incubated for 5 minutes at 37° C. The reaction is stopped by placing the reaction plate on the shaker and adding 20 μl of 10% trifluoroacetic acid (TFA) and shaking for 10 seconds. The amount of proteolysis is then determined by separation of noncleaved substrate and two cleaved products with reverse-phase HPLC, while measuring absorbance at 220 nm to determine the relative peak areas of the three components. The relative peak areas are used to calculate % conversion to product as a function of inhibitor concentration. The data is plotted as % Control (the ratio of % conversion in the presence and absence of inhibitor×100) versus inhibitor concentration and fit with the equation Y=100/1+(X/IC50)^A, where IC50 is the inhibitor concentration at 50% inhibition and A is the slope of the inhibition curve.

HIV = conditions: R. Nagorny et al., AIDS 1993; cited from earlier work

Compound | MIC [1] | MIC [2] | MIC [3] | MIC [4] | MIC [5] | IC50 (HIV-I Protease) | inhibition of HIV infection (in words) (HIV)
O=c1oc(-c2ccc(OCc3ccccc3)cc2)cc(O)c1SCCc1ccccc1 [Example 29, 4-Hydroxy-3-[(2-phenylethyl)thio]-6-[4-(phenylmethoxy)phenyl]-2H-pyran-2-one] | 25 µg/mL (≈ 58.1 µM) | 25 µg/mL (≈ 58.1 µM) | 50 µg/mL (≈ 116 µM) | 25 µg/mL (≈ 58.1 µM) | 25 µg/mL (≈ 58.1 µM) |  | 
Cc1cc(C)cc(-c2cc(O)c(Sc3ccccc3C(C)C)c(=O)o2)c1 [Example 169, 6-(3,5-Dimethylphenyl)-4-hydroxy-3-[(2-isopropylphenyl)-thio]-2H-pyran-2-one] |  |  |  |  |  | 15 nM | 
CC(C)c1ccccc1Sc1c(O)cc(-c2cccc(-c3ccccc3)c2)oc1=O [Example 167, 6-(1,1'-Biphen-3-yl)-4-hydroxy-3-[(2-isopropylphenyl)thio]-2H-pyran-2-one] | 6.2 µg/mL (≈ 15 µM) | 6.2 µg/mL (≈ 15 µM) | 12.5 µg/mL (≈ 30.2 µM) | 6.2 µg/mL (≈ 15 µM) | 6.2 µg/mL (≈ 15 µM) |  | 
O=c1oc(-c2ccccc2Cl)cc(O)c1SCc1ccccc1 [Example 2, 6-(2-chlorophenyl)-4-hydroxy-3-[(phenylmethyl)thio]-2H-pyran-2-one] | 12.5 µg/mL (≈ 36.3 µM) | 12.5 µg/mL (≈ 36.3 µM) | 25 µg/mL (≈ 72.5 µM) | 12.5 µg/mL (≈ 36.3 µM) | 12.5 µg/mL (≈ 36.3 µM) |  | 
CCC(=O)Oc1cc(-c2ccccc2)oc(=O)c1SCc1ccccc1 [Example 49, 2-Oxo-6-phenyl-3-[ (phenylmethyl)thio]-2H-pyran-4-ylpropanoic acid ester] |  |  |  |  |  | 1600 nM | 
CC(=O)CC(c1ccccc1)c1c(O)c2ccccc2oc1=O (stereo not drawn) [Warfarin, 3-(α-acetonylbenzyl)-4-hydroxycoumarin] |  |  |  |  |  |  | inhibiting cell-free and cell-mediated HIV infection
O=c1oc(-c2ccc(OCCO)cc2)cc(O)c1SCCc1ccccc1 [Example 160, 4-Hydroxy-6-[4-(2-hydroxyethoxy)phenyl]-3-[(2-phenylethyl)thio]-2H-pyran-2-one] |  |  |  |  |  | 360 nM | 
CC(C)c1ccccc1Sc1c(O)cc(-c2cc(Cl)cc(Cl)c2)oc1=O [Example 193, 6-(3,5-Dichlorophenyl)-4-hydroxy-3-[(2-isopropylphenyl)thio]-2H-pyran-2-one] |  |  |  |  |  | 26 nM | 
CC(C)c1ccccc1Sc1c(O)cc(-c2ccc(OCc3cccnc3)cc2)oc1=O [Example 172, 4-Hydroxy-3-[(2-isopropylphenyl)thio]-6-[4-(pyridin-3-ylmethoxy)phenyl]-2H-pyran-2-one] | 50 µg/mL (≈ 112 µM) | 50 µg/mL (≈ 112 µM) | 100 µg/mL (≈ 224 µM) | 50 µg/mL (≈ 112 µM) | 50 µg/mL (≈ 112 µM) |  | 
